Patent publication US11584762B1, “Near-infrared fluorescent indicators for lysosome and application thereof” (DALIAN UNIVERSITY OF TECHNOLOGY, priority 2022, dated 2023)

Columns and labels:
[1] = Emission in 2 mM CTAB (pH 3) or H2O (pH 7); type: physicochemical; conditions: for Emission in 2 mM CTAB at pH 3 / Fluorescence in water at pH 7: FIG. 1, 1 μM; for Emission in 2 mM CTAB at pH 3: pH 3, lysosome-like microenvironment; for Fluorescence in water at pH 7: H2O; for Fluorescence emission in 2 mM CTAB at pH 3 / Fluorescence emission in water at pH 7: Table 2
Protocol: The properties of compounds D1, D2, D25 and D26 were investigated. Compounds D1, D2, D25 and D26 were dissolved in DMSO to obtain a 1 mM stock solution. The stock solution was further diluted with 2 mM CTAB (pH 3) or H2O (pH 7) to obtain a 1 μM testing solution. The absorption spectrum and emission spectrum of the testing solution were measured. The evaluated method of photophysical properties was the same as example 13.
CTAB (Hexadecyl trimethyl ammonium bromide) is a cationic surfactant with a critical micelle concentration of 0.9 mM. CTBA exists in the form of micelles in a 2 mM solution of CTAB, which not only helps dissolve dye molecules but also simulates the acidic microenvironment of lysosomes. […] It is preliminarily determined that such property is in favor of confocal imaging of lysosomes without PBS washing.
(§1) The photophysical properties of compounds D6, D15, D20, D22, D46 and D51 are provided in Table 2, following a similar testing method as example 14 and example 15. […] It can be seen that such property is in favor of confocal imaging of lysosomes without PBS washing.

[2] = Photophysical properties in acetonitrile (absorption, emission, extinction coefficient, quantum yield); type: physicochemical
Protocol: The photophysical properties of compounds D1, D2, D25 and D26 were investigated. Compounds D1, D2, D25 and D26 were dissolved in DMSO to obtain a 1 mM stock solution. The stock solution was further diluted with acetonitrile to obtain a 1 μM testing solution, of which 1 μL trifluoroacetic acid (0.1% by volume) was added. The absorption spectrum, emission spectrum, quantum yield and molar extinction coefficient of these testing solutions were measured. The absorption spectrum was recorded on Agilent 8453 UV-Vis-Spectrophotometer, and the fluorescent spectrum was recorded on an Agilent fluorescence spectrometer. The maximum absorption spectrum (λab), the maximum emission spectrum (λem), the molar extinction coefficient (ε), and the fluorescence quantum yield (Φ^1) of compounds D1, D2, D25 and D26 were shown in Table 1.
as §1

[3] = system: lysosomes of RAW 264.7 cells; test: Confocal imaging of live cell lysosomes co-stained with DND-26; type: cell-based; conditions: co-stain 1 μM DND-26, PBS washed
Protocol: The fluorescent imaging of compounds D1, D6, D22 and D25. After incubating for 24 hours in a cell incubator with 5% CO2 at 37° C., RAW 264.7 cells were incubated with 1 μM D1 or 1 μM D6 for 5 min, or incubated with 1 μM D22 or 1 μM D25 for 60 min, then incubated with 1 μM DND-26 which is green lysosome probe for 5 min, washed three times with PBS, then imaged using a confocal microscope.
The fluorescence image of compounds D15, D20, D46 and D51. After incubating for 24 hours in a cell incubator with 5% CO2 at 37° C., RAW 264.7 cells were incubated with 1 μM D15 or 1 μM D20 for 5 min, or incubated with 1 μM D46 or 1 μM D51 for 60 min, then incubated with 1 μM DND-26 for 5 min, washed three times with PBS, and then imaged using a confocal microscope.

[4] = system: lysosomal membrane of RAW 264.7 cells; test: STED-based super-resolution imaging; type: cell-based; conditions: 250 nM for 60 min
Protocol: We used D25 as a representative to evaluate its ability to perform STED-based super-resolution imaging. After incubating for 24 hours in a cell incubator with 5% CO2 at 37° C., RAW 264.7 cells were stained with 250 nM D25 for 60 min and imaged using STED based microscope after replacing the staining solution with fresh MEM.

[5] = system: lysosomes of RAW 264.7 cells; test: Confocal imaging of lysosomes after chloroquine stimulation; type: cell-based; conditions: 1 μM, co-staining D25 and DND-26, 20 µM chloroquine, within 5 min
Protocol: The fluorescence imaging of compound D25. After incubating for 24 hours in a cell incubator with 5% CO2 at 37° C., RAW 264.7 cells were incubated with 1 μM D25 for 60 min, then incubated with 1 μM DND-26 for 5 min, washed three times with PBS, and then imaged using a confocal microscope after adding 20 µM chloroquine. Chloroquine can cause protons to escape from lysosomes, so it can be used to raise the pH of the lysosomes.

[6] = system: lysosomes of RAW 264.7 cells; test: Confocal imaging of live cell lysosomes without washing; type: cell-based; conditions: 100 nM for 60 min, no washing
Protocol: The fluorescence image of compound D25. After incubating for 24 hours in a cell incubator with 5% CO2 at 37° C., RAW 264.7 cells were incubated with 100 nM D25 for 60 min and then imaged using a confocal microscope.

[7] = Confocal imaging of stained vesicles at pH 4.0 and pH 7.4; conditions: 60 min
Protocol: We further investigate the targeting feature by imaging vesicles stained with D25 at pH 4.0 and pH 7.4.
The “droplet transfer” method was used to prepare vesicles composed of PC/Chol molar ratios of 7:3, following six steps as below: 1) Prepare 200 mM glucose aqueous solution and sucrose aqueous solution respectively. 2) Hydrophobic phase (0.3 mM PC in decane+0.3 mM CL in decane for PC/CL). 3) The hydrophobic phase was prepared by adding PC (0.3 mM) and possibly other lipids (SM and/or Chol) in decane. 4) Pipette the aqueous phase consisting of 20 μL of sucrose solution and the hydrophobic phase consisting of 600 μL PC/CL into a 1.5 ml centrifuge tube and shake them well. 5) Centrifuge the tube, then remove the mineral oil and wash the GUVs to remove excess solutes. 6) Suspend 30 μL of the pellet in 20 μL of 200 mM glucose solution. 7) Pipette 20 μL onto a glass slide and observe with a confocal microscope and fluorescence lifetime microscope.
Method for vesicles imaging, 30 μL of the vesicles was diluted with 20 μL of 200 mM glucose solution, then stained with D25 in pH 4 PBS (or in pH 7.4 PBS) for 60 min and imaged with a confocal microscope.

[8] = Table 1, acetonitrile, 1 μM, trifluoroacetic acid 0.1% by volume

SMILES	Emission in 2 mM CTAB at pH 3 [1]	Fluorescence in water at pH 7 [1]	Φ^1 (fluorescence quantum yield) ([2]; Table 1, acetonitrile)	ε (molar extinction coefficient) ([2]; Table 1, acetonitrile)	λab (maximum absorption) [2, 8]	λem (maximum emission) [2, 8]	Lysosome targeting in confocal images ([3]; 1 μM for 5 min)	Fluorescence emission in 2 mM CTAB at pH 3 [1]	Fluorescence emission in water at pH 7 [1]	Φ^1 (fluorescence quantum yield) ([2]; Table 2, in acetonitrile)	ε (molar extinction coefficient) ([2]; Table 2, in acetonitrile)	λab (maximum absorption) ([2]; Table 2, in acetonitrile)	λem (maximum emission) ([2]; Table 2, in acetonitrile)	Lysosome targeting in confocal images ([3]; 1 μM for 60 min)	Localization in super-resolution image [4]	Change of fluorescence intensity after adding chloroquine [5]	Lysosome imaging without washing [6]	Fluorescence of stained vesicles at pH 4 ([7]; pH 4 PBS)	Fluorescence of stained vesicles at pH 7.4 ([7]; pH 7.4 PBS)
CC1=CC(C)=[N+]2C1=C(c1ccccc1)c1c(C)cc(C=Cc3ccc4c(c3)c3ccccc3n4Cc3cn(CCN(C)CCN(C)C)nn3)n1[B-]2(F)F [D1]	stable emission	almost no fluorescence	0.83	7.5 M^−1 · cm^−1 × 10^4	581 nm	603 nm	can specifically target lysosomes												
CC1=C(Cl)C(C)=[N+]2C1=C(c1ccccc1)c1c(C)c(Cl)c(C=Cc3ccc4c(c3)c3ccccc3n4Cc3cn(CCN(C)CCN(C)C)nn3)n1[B-]2(F)F [D2]	stable emission	almost no fluorescence	0.63	10.4 M^−1 · cm^−1 × 10^4	604 nm	650 nm													
CC1=C(Cl)C(C)=[N+]2C1=C(c1ccc(C)cc1)c1c(C)c(Cl)c(C=Cc3ccc4c(c3)c3ccccc3n4Cc3cn(CCN4CCNCC4)nn3)n1[B-]2(F)F [D6]							can specifically target lysosomes	Stable	No	0.73	8.1 M^−1 · cm^−1 × 10^4	590 nm	615 nm						
CCOC(=O)CCC1=C2C(C)=CC(C)=[N+]2[B-](F)(F)n2c(C=Cc3ccc4c(c3)c3ccccc3n4Cc3cn(CCCN(C)CCN(C)C)nn3)cc(C)c21 [D22]								Stable	No	0.81	10.8 M^−1 · cm^−1 × 10^4	611 nm	661 nm	can specifically target lysosomes					
CC1=CC(C=Cc2ccc3c(c2)c2ccccc2n3Cc2cn(CCN(C)CCN(C)C)nn2)=[N+]2C1=C(c1ccccc1)c1c(C)cc(C=Cc3ccc4c(c3)c3ccccc3n4Cc3cn(CCN(C)CCN(C)C)nn3)n1[B-]2(F)F [D25]	stable emission	almost no fluorescence	0.94	9.2 M^−1 · cm^−1 × 10^4	664 nm	684 nm								can specifically target lysosomes	localized in the lysosomal membrane	only changed slightly	can be used for lysosome images without washing	intense fluorescence	weak fluorescence
CC1=C(Cl)C(C=Cc2ccc3c(c2)c2ccccc2n3Cc2cn(CCN(C)CCN(C)C)nn2)=[N+]2C1=C(c1ccccc1)c1c(C)c(Cl)c(C=Cc3ccc4c(c3)c3ccccc3n4Cc3cn(CCN(C)CCN(C)C)nn3)n1[B-]2(F)F [D26]	stable emission	almost no fluorescence	0.72	11.3 M^−1 · cm^−1 × 10^4	692 nm	732 nm													
CCOC(=O)CCC1=C2C(C)=CC(/C=C/c3ccc4c(c3)c3ccccc3n4Cc3cn(CCCN(C)CCN(C)C)nn3)=[N+]2[B-](F)(F)n2c(/C=C/c3ccc4c(c3)c3ccccc3n4Cc3cn(CCCN(C)CCN(C)C)nn3)cc(C)c21 [D46]								Stable	No	0.89	11.0 M^−1 · cm^−1 × 10^4	659 nm	675 nm	can specifically target lysosomes					
COc1ccc(C2=C3C(C)=C(Cl)C(C=Cc4ccc5c(c4)c4ccccc4n5Cc4cn(CCN5CCNCC5)nn4)=[N+]3[B-](F)(F)n3c(C=Cc4ccc5c(c4)c4ccccc4n5Cc4cn(CCN5CCNCC5)nn4)c(Cl)c(C)c32)cc1 [D51]								Stable	No	0.79	11.1 M^−1 · cm^−1 × 10^4	689 nm	728 nm	can specifically target lysosomes					
